According to patent US20260356851A1, “TRICYCLIC COMPOUNDS AND USES THEREOF” (HUTCHMED LIMITED, priority 2023, published 2026):

Tests used:
Assay type in all cases: cell-based
[1] = target: T1, pERK1/2 (Thr202/Tyr204), NCI-1H358 (KRAS G12C) (Homo sapiens, UniProt P01116, G12C); assay: Assay of intracellular pERK1/2 (Thr202/Tyr204) phosphorylation in NCI-H358 cells (KRAS G12C); conditions: pERK1/2, 2 days, read-out: NCI-H358 (KRAS G12C) IC50
T1 construct: pERK1/2 HTRF read-out
Outline: (§1)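 HTRF detection of Thr202/Tyr204-phosphorylated ERK1/2 (665/615 nm ratio) in lysates from cells treated 2 days with serially 3-fold diluted compound.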

[2] = target: T2, pERK1/2 (Thr202/Tyr204), PANC-1 (KRAS G121D) (Homo sapiens, UniProt P01116, G12D); assay: Assay of intracellular pERK1/2 (Thr202/Tyr204) phosphorylation in PANC-1 cells (KRAS G12D); conditions: pERK1/2, 2 days, read-out: PANC-1 (KRAS G12D) IC50
T2 construct: pERK1/2 HTRF read-out
Outline: as §1

[3] = target: T3, pERK1/2 (Thr202/Tyr204), NCI-1H441 (KRAS G12V) (Homo sapiens, UniProt P01116, G12V); assay: Assay of intracellular pERK1/2 (Thr202/Tyr204) phosphorylation in NCI-H441 cells (KRAS G12V); conditions: pERK1/2, 2 days, read-out: NCI-H441 (KRAS G12V) IC50
T3 construct: pERK1/2 HTRF read-out
Outline: as §1

T3 sequence (P01116 1-188 isoform P01116-2 G12V): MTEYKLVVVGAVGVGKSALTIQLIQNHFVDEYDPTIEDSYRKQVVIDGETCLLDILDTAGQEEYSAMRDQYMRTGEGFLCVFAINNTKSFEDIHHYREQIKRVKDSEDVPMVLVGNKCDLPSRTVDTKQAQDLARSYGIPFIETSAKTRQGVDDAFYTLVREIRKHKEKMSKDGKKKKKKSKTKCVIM
T1 sequence (P01116 1-188 isoform P01116-2 G12C): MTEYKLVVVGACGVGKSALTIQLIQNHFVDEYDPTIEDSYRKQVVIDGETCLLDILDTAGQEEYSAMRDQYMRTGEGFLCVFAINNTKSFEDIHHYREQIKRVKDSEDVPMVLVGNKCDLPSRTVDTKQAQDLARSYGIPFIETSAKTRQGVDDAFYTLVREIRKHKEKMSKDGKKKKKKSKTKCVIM
T2 sequence (P01116 1-188 isoform P01116-2 G12D): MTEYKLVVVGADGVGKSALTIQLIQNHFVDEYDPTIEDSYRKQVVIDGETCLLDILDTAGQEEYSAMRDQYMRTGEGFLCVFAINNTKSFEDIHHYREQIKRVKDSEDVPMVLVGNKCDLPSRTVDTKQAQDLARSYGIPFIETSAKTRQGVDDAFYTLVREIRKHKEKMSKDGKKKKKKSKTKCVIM

Compound | IC50 [1] [nM] | IC50 [2] [nM] | IC50 [3] [nM]
Cc1c(C(F)(F)F)c(-c2nc3c4c(nc(OC[C@@]56CCCN5C[C@H](F)C6)nc4c2F)N(C(C)c2cccnc2N)[C@@H](C)CO3)c2c(Cl)n[nH]c2c1F (stereo partly drawn) [Compound 381] | 0.2 | 0.2 | 0.4
CC(c1cccnc1N)N1CCOc2nc(-c3cc(O)cc(F)c3C3CC3)c(F)c3nc(OC[C@@H]4CC(F)(F)CN4C)nc1c23 (stereo partly drawn) [Compound 45] | 38 | > 1000 | 53
Cc1c(F)c(N)cc(-c2nc3c4c(nc(OC[C@@H]5CCCN5C)nc4c2F)N(C(C)c2cccnc2N)CCO3)c1C(F)(F)F (single isomer, unassigned) [Compound 85, 3-((R or S)-1-(5-(5-amino-4-fluoro-3-methyl-2-(trifluoromethyl)phenyl)-4-fluoro-2-(((S)-1-methylpyrrolidin-2-yl)methoxy)-8,9-dihydro-10H-7-oxa-1,3,6,10-tetraazacyclohepta[de]naphthalen-10-yl)ethyl)pyridin-2-amine] | 0.4 | 11 | 2
[2H]C1([2H])CC[C@@]2(C([2H])([2H])Oc3nc4c5c(nc(-c6cc(O)cc(Cl)c6C6CC6)c(F)c5n3)OCCN4C(C)c3cccnc3N)C[C@@H](F)CN12 (single isomer, unassigned) [Compound 131, 3-(10-((R or S)-1-(2-aminopyridin-3-yl)ethyl)-4-fluoro-2-(((2R,7aS)-2-fluorotetrahydro-1H-pyrrolizin-7a(5H)-yl-5,5-d2)methoxy-d2)-9,10-dihydro-8H-7-oxa-1,3,6,10-tetraazacyclohepta[de]naphthalen-5-yl)-5-chloro-4-cyclopropylphenol] | 0.5 | 7 | 1
CC(c1cccnc1N)N1CCOc2nc(-c3cc(N)ccc3C(F)(F)F)c(F)c3nc(OC[C@@]45CCCN4C[C@H](F)C5)nc1c23 (stereo partly drawn) [Compound 18] | 1 | 54 | 3
Cc1cc(N)cc(-c2nc3c4c(nc(OC[C@@]56CCCN5C[C@H](F)C6)nc4c2F)N(C(C)c2cccnc2N)CCO3)c1C(F)(F)F (single isomer, unassigned) [Compound 61, 3-((R or S)-1-(5-(5-amino-3-methyl-2-(trifluoromethyl)phenyl)-4-fluoro-2-(((2R,7aS)-2-fluorotetrahydro-1H-pyrrolizin-7a(5H)-yl)methoxy)-8,9-dihydro-10H-7-oxa-1,3,6,10-tetraazacyclohepta[de]naphthalen-10-yl)ethyl)pyridin-2-amine] | 0.2 | 0.6 | 0.2
CC(c1cccnc1N)N1CCOc2nc(-c3cc(O)cc(Cl)c3C3CC3)c(F)c3nc(OC[C@@H]4CCCCN4C)nc1c23 (stereo partly drawn) [Compound 139] | 91 | > 100 | > 100
CCc1c(F)ccc2cc(O)cc(-c3nc4c5c(nc(OC[C@@]67CCCN6C[C@H](F)C7)nc5c3F)N(C(C)c3cccnc3NC(=O)[C@H](C)N)[C@@H](C)CO4)c12 (stereo partly drawn) [Compound 300] | 0.6 | 0.5 | 2
CC(c1cccnc1N)N1c2nc(OC[C@@]34CCCN3C[C@H](F)C4)nc3c(F)c(-c4cc(O)cc(Cl)c4C4CC4)nc(c23)OC[C@@H]1C (stereo partly drawn) [Compound 268] | 0.2 | 0.4 | 0.5
[2H]C([2H])([2H])N1CCC[C@H]1COc1nc2c3c(nc(-c4cc(N)cc(C)c4C(F)(F)F)c(F)c3n1)OCCN2C(C)c1cccnc1N (single isomer, unassigned) [Compound 96, 3-((R or S)-1-(5-(5-amino-3-methyl-2-(trifluoromethyl)phenyl)-4-fluoro-2-(((S)-1-(methyl-d3)pyrrolidin-2-yl)methoxy)-8,9-] | 27 | > 100 | 57
Cc1cc2[nH]nc(C)c2c(-c2cc3nc(OC[C@@]45CCCN4C[C@H](F)C5)nc4c3c(n2)OC[C@H](C)N4C(C)c2cccnc2N)c1C(F)(F)F (stereo partly drawn) [Compound 385] | 0.7 | 0.4 | 2
Cc1c(F)c(N)cc(-c2nc3c4c(nc(OC[C@]56CCCN5C[C@H](F)C6)nc4c2F)N(C(C)c2cccnc2N)CCO3)c1C(F)(F)F (stereo partly drawn) [Compound 164] | 0.2 | 3 | 0.3
Cc1cc(N)cc(-c2nc3c4c(nc(OC[C@@]56CCCN5C[C@H](F)C6)nc4c2F)N(C(C)c2cccnc2N)CCCO3)c1C(F)(F)F (single isomer, unassigned) [Compound 167, 3-((R or S)-1-(5-(5-amino-3-methyl-2-(trifluoromethyl)phenyl)-4-fluoro-2-(((2R,7aS)-2-fluorotetrahydro-1H-pyrrolizin-7a(5H)-yl)methoxy)-9,10-dihydro-7-oxa-1,3,6,11-tetraazacycloocta[de]naphthalen-11(8H)-yl)ethyl)pyridin-2-amine] | > 100 | > 100 | > 100
Cc1cc2[nH]ncc2c(-c2nc3c4c(nc(OC[C@@]56CCCN5C[C@H](F)C6)nc4c2F)N([C@@H](C)c2cccnc2N)[C@@H](C2CC2)CO3)c1C(F)(F)F [Compound 391] | > 100 | > 100 | > 100
[2H]C1([2H])CN(C(C)c2cccnc2N)c2nc(OC[C@@]34CCCN3C[C@H](F)C4)nc3c(F)c(-c4cc(N)c(F)c(C)c4C(F)(F)F)nc(c23)O1 (single isomer, unassigned) [Compound 184, 3-((R or S)-1-(5-(5-amino-4-fluoro-3-methyl-2-(trifluoromethyl)phenyl)-4-fluoro-2-(((2R,7aS)-2-fluorotetrahydro-1H-pyrrolizin-7a(5H)-yl)methoxy)-8,9-dihydro-10H-7-oxa-1,3,6,10-tetraazacyclohepta[de]naphthalen-10-yl-8,8-d2)ethyl)pyridin-2-amine] | 5 | 28 | 13
Cc1n[nH]c2cc3ccccc3c(-c3nc4c5c(nc(OC[C@@]67CCCN6C[C@H](F)C7)nc5c3F)N(C(C)c3cccnc3N)[C@@H](C)CO4)c12 (stereo partly drawn) [Compound 401] | 0.3 | 0.3 | 0.4
CC(c1cccnc1N)N1CCOc2nc(-c3cc(N)cc(Cl)c3C(F)(F)F)c(F)c3nc(OC[C@@]45CCCN4C[C@H](F)C5)nc1c23 (single isomer, unassigned) [Compound 72, 3-((R or S)-1-(5-(5-amino-3-chloro-2-(trifluoromethyl)phenyl)-4-fluoro-2-(((2R,7aS)-2-fluorotetrahydro-1H-pyrrolizin-7a(5H)-yl)methoxy)-8,9-dihydro-10H-7-oxa-1,3,6,10-tetraazacyclohepta[de]naphthalen-10-yl)ethyl)pyridin-2-amine] | 11 | 38 | 13
CC(c1cccnc1N)N1CCOc2nc(-c3cc(O)cc(Cl)c3C3CC3)c(F)c3nc(OC[C@@H]4CC(F)(F)CN4C)nc1c23 (single isomer, unassigned) [Compound 56, 3-(10-((R or S)-1-(2-aminopyridin-3-yl)ethyl)-2-(((S)-4,4-difluoro-1-methylpyrrolidin-2-yl)methoxy)-4-fluoro-9,10-dihydro-8H-7-oxa-1,3,6,10-tetraazacyclohepta[de]naphthalen-5-yl)-5-chloro-4-cyclopropylphenol] | 3 | 134 | 5
CC(c1cccnc1N)N1c2nc(OC[C@@H]3C[C@@H](F)CN3C)nc3c(F)c(-c4cc(O)cc5ccc(F)c(F)c45)nc(c23)OC[C@@H]1C (stereo partly drawn) [Compound 281] | 0.2 | 1 | 0.5
[2H]C1([2H])CC[C@@]2(C([2H])([2H])Oc3nc4c5c(nc(-c6cc(O)cc(Cl)c6C6CC6)c(F)c5n3)OCCN4[C@H](C)c3cccnc3N)C[C@@H](F)CN12 (single isomer, unassigned) [Compound 130, 3-(10-((R or S)-1-(2-aminopyridin-3-yl)ethyl)-4-fluoro-2-(((2R,7aS)-2-fluorotetrahydro-1H-pyrrolizin-7a(5H)-yl-5,5-d2)methoxy-d2)-9,10-dihydro-8H-7-oxa-1,3,6,10-tetraazacyclohepta[de]naphthalen-5-yl)-5-chloro-4-cyclopropylphenyl] | > 100 | > 100 | > 100
Cc1c(-c2nc3c4c(nc(OC[C@@]56CCCN5C[C@H](F)C6)nc4c2F)N(C(C)c2cccnc2N)[C@@H](C)CO3)ccc2cn[nH]c12 (stereo partly drawn) [Compound 324] | 28 | > 100 | > 100
CC(c1cccnc1N)N1c2nc(OC[C@@]34CCCN3C[C@H](F)C4)nc3c(F)c(-c4c5c(cc6[nH]ncc46)CCC5(F)F)nc(c23)OC[C@@H]1C (stereo partly drawn) [Compound 370] | 1 | 2 | 3
